The results in this text go back to patent US12440479B2, “Prevention or treatment of chronic organ injury” (GEORG-AUGUST-UNIVERSITAET GOETTINGEN, STIFTUNG …, priority 2018, dated 2025).

Data set [1] can be described thus: FK506 blood concentration measurements (ELISA, whole blood). It is filed as in vivo, mice. The protocol: FK506 concentration in whole blood samples of mice was measured using colorimetric FK506 Elisa Kit (Abnova, Taipei, […]) according to the manufacturer's protocol. Briefly, 25 μL of whole blood samples and standard solutions containing 0, 2, 10 and 50 ng/mL FK506 were analyzed by OD measurements at 450 nanometer (nm) wavelength.
On the technique in general: In an ELISA, binding on a coated surface is turned into a signal by an enzyme label.

For a further data set, the system named is ARNT, ALK3, pSmad1/5/8. The data set is described as follows: Kidney allograft biopsies of transplant recipients (immunolabelling, qRT-PCR). It is filed as in vivo, human. Conditions: FK506-based immunosuppressive regimen as compared to CsA. The protocol:
The use of parts of human specimens for research purposes as approved by the Ethics Committee of the University Medicine Göttingen, clinical data are presented in Table 6.
Paraffin-embedded specimens were deparaffinized in xylene and rehydrated in ethanol containing distilled water. Tissue sections were stained using polyclonal antibodies against ALK3 (sc-20736, Santa Cruz Biotechnology, Dallas, USA) and ARNT (3718S, Cell Signaling, Danvers, USA), peroxidase labeling was performed using Vectastain Universal Elite ABC Kit (Vector Laboratories, Burlingame, USA) according to the manufacturer's protocol. AEC Substrate-Chromogen (Dako, Glostrup, Denmark) was applied for peroxidase visualization according to the manufacturer's protocol. Nuclear counterstain was performed by using Mayer's Hematoxylin Solution (Sigma, St. Louis, USA). […]
For SYBR-based real-time PCR, cDNA synthesis was performed by using DNase I digestion (Invitrogen, Carlsbad, USA) and SuperScript II Reverse Transcriptase (Invitrogen, Carlsbad, USA) according to the manufacturer's protocol. […] The relative expression levels were calculated using the equation 2^−ddCt.
(Quantitative PCR measures a nucleic acid by following its amplification.)

Another data set deals with TEC cultures. The data set is described as follows: RT2 Profiler PCR arrays (transcription factor, hypoxia, drug metabolism) in TECs. The class given is cell-based. As for the experimental part: To compare qPCR-validated cDNA samples after FK506 treatment and DMSO control, gene expression profiling was performed using commercially available plates (PAHS-075Z/PAMM-002Z/PAMM032Z, SABiosciences, Qiagen, Hilden, Germany). HK-2 cells were plated in 6 well culture plates as previously described and stimulated with 150 ng/mL FK506, MCT cells with 200 pM FK506. After 6 hours, cells were dissolved and RNA was isolated, digested and reverse transcripted. The 25 ng cDNA equivalent of total RNA was added to the reaction mixture containing diluted 2× RT^2 SYBR Green ROX qPCR Mastermix (Qiagen, Hilden, Germany) in a final volume of 25 μL for each well of the RT2 Profiler PCR. PCR reactions were performed under recommended thermal cycling conditions (10 min at 95° C., 15 s at 95° C., 1 min at 60° C. for 40 cycles). To verify PCR specificity, dissociation curve analysis was generated. Relative levels of mRNA expression were normalized in all the samples with expression levels of included housekeeping genes, and data analysis was done using an web-based analysis software provided by SABiosciences. Transcription factor binding sites within the ALK3 proximal promoter was performed 5000 basepairs relative to transcriptional start site using […] database (98).

Take `C=CC[C@@H]1/C=C(\C)C[C@H](C)C[C@H](OC)[C@H]2O[C@@](O)(C(=O)C(=O)N3CCCC[C@H]3C(=O)O[C@H](/C(C)=C/[C@@H]3CC[C@@H](O)[C@H](OC)C3)[C@H](C)[C@@H](O)CC1=O)[C@H](C)C[C@@H]2OC` [FK506, tacrolimus]: the figures for the FK506 blood concentration in data set [1] (0.02 mg/kg orally per day), in data set [1] (0.075 mg/kg orally per day) and in data set [1] (0.2 mg/kg orally per day) were 245 ± 73 pg/mL, 452 ± 71 pg/mL and 535 ± 36 pg/mL, respectively. For the same compound, the “immunolabelling of ARNT, ALK3 and pSmad1/5/8” value in the data set on ARNT, ALK3, pSmad1/5/8 is reported as “significantly increased”. Moreover, the “intrarenal ARNT and ALK3 mRNA expression levels” value with ARNT, ALK3, pSmad1/5/8 is “Transcriptional induction”. The “induction of transcriptional factors AR, ARNT, CEPB, CREB1, GATA3 and MAX (array)” value in the data set with TEC cultures (TEC cultures upon FK506 exposure) was “at least 2 fold”. Besides, in the data set on TEC cultures (TECs exposed to FK506), the “pathways involved in hypoxic signaling or drug metabolism (mRNA expression arrays)” value is listed as “did not markedly induce”.
